{"source": "patent US12186414B2", "about": "“Composition and method for endodontic debridement” (priority 2018, dated 2025)", "key": {"[1]": {"settings": "cited from earlier work"}, "[2]": {"assay": "Experiments with TCA in endodontic treatment including sodium hypochlorite (clinical and radiographic observations)", "assay_type": "in vivo", "text": "FIGS. 7 and 8 show radiographic images from prior to (FIG. 7) and following (FIG. 8) endodontic treatment with a TCA composition as described herein. The image in FIG. 7 is of a tooth that had previously undergone endodontic treatment, but without TCA as a debridement solution."}, "[3]": {"assay": "Self-assessment of pain before and after endodontic treatment (Control vs Experimental)", "assay_type": "in vivo, patients", "settings": "for self-assessed pain, 6 hours / self-assessed pain, 24 hours / self-assessed pain, 48 hours / self-assessed pain, 120 hours / self-assessed pain, Before: scale of 1-10; for self-assessed pain, 6 hours: 6 hours following endodontic treatment; for self-assessed pain, 24 hours: 24 hours following endodontic treatment; for self-assessed pain, 48 hours: 48 hours following endodontic treatment; for self-assessed pain, 120 hours: 120 hours following endodontic treatment; for self-assessed pain, Before: prior to endodontic treatment (baseline)", "protocol": "Use of TCA during endodontic treatment is associated with decreased incidence of pain following endodontic treatment. Without wishing to be bound by the theory, it is believed that the TCA composition eliminates unmyelinated C fibers in the apical pulp, particularly in mandibular molars. To assess the decreased pain, individuals were asked to provide a self-assessment, on a scale of 1-10, of pain prior to endodontic treatment, and 6, 24, 48, and 120 hours following endodontic treatment. Patients were divided into two groups, one group (Control, N=9) receiving standard endodontic treatment including sodium hypochlorite as the primary irrigant, with occasional (as necessary) flushes with 17% EDTA, and one group (Experimental, N=10) receiving endodontic treatment including the composition described herein as a pre-treatment applied to pulp to facilitate navigating calcified canals and after initial shaping with patency. The experimental group received sodium hypochlorite irrigation and, as necessary, EDTA flushing, as in the control group."}, "dental pulp": {"test_system": "dental pulp", "settings": "cited from earlier work"}, "[4]": {"settings": "endodontic treatment including sodium hypochlorite"}, "[5]": {"settings": "endodontic treatment including sodium hypochlorite, particularly in lower molar cases"}}, "data": [{"compound": "O=C(O)C(Cl)(Cl)Cl", "note": "[TCA, trichloroacetic acid]", "values": [{"measurement": "pKa", "setting": "[1]", "value": "~0.6"}, {"measurement": "radiographic appearance of retreated root (FIG. 8)", "setting": "[2]; after endodontic retreatment with TCA", "value": "thicker irregular deformed material that fully fills the root tip"}, {"measurement": "bleeding", "setting": "[2]; [4]", "value": "lessened bleeding or elimination of bleeding altogether"}, {"measurement": "cleanliness of apex", "setting": "[2]; [4]", "value": "cleaner apex"}, {"measurement": "inflammation", "setting": "[2]; [5]", "value": "less inflammation"}, {"measurement": "pain", "setting": "[2]; [5]", "value": "reduced pain"}, {"measurement": "access of debridement composition to microscopic root canal branches, fins, and anastomoses", "setting": "[2]; in vivo", "value": "improved access"}, {"measurement": "removal of debris and material from prior endodontic treatment", "setting": "[2]; in vivo", "value": "improved removal of debris"}, {"measurement": "subjective levels of pain following endodontic treatment compared to control", "setting": "[3]; compared to the gold standard control, sodium hypochlorite", "value": "reduced subjective levels of pain"}, {"measurement": "self-reported pain level at 6 hours", "setting": "[3]; patients presenting with necrosis, 6 hours following treatment", "value": 0.5}, {"measurement": "self-reported pain level at 24 hours", "setting": "[3]; patients presenting with necrosis, 24 hours following treatment", "value": 0.25}, {"measurement": "self-reported pain level at 48 hours", "setting": "[3]; patients presenting with necrosis, 48 hours following treatment", "value": 0}, {"measurement": "self-reported pain level at 120 hours", "setting": "[3]; patients presenting with necrosis, 120 hours following treatment", "value": 0}, {"measurement": "self-reported pain level before treatment", "setting": "[3]; patients presenting with necrosis, before treatment (baseline)", "value": 4.5}, {"measurement": "self-assessed pain, 6 hours", "setting": "[3]", "value": 0.7}, {"measurement": "self-assessed pain, 24 hours", "setting": "[3]", "value": 0.5}, {"measurement": "self-assessed pain, 48 hours", "setting": "[3]", "value": 0.4}, {"measurement": "self-assessed pain, 120 hours", "setting": "[3]", "value": 0.2}, {"measurement": "self-assessed pain, Before", "setting": "[3]", "value": 3.1}]}, {"compound": "OCl", "note": "[Control, sodium hypochlorite, reference compound]", "values": [{"measurement": "amount of time that the treatment must be used", "setting": "dental pulp; known debridement method", "value": 10, "unit": "min"}, {"measurement": "time to dissolve dental pulp", "setting": "dental pulp; strength of 6.25%", "value": "≥ 10", "unit": "min"}, {"measurement": "self-assessed pain, 6 hours", "setting": "[3]", "value": 1}, {"measurement": "self-assessed pain, 24 hours", "setting": "[3]", "value": 0.89}, {"measurement": "self-assessed pain, 48 hours", "setting": "[3]", "value": 1.44}, {"measurement": "self-assessed pain, 120 hours", "setting": "[3]", "value": 0.56}, {"measurement": "self-assessed pain, Before", "setting": "[3]", "value": 2.67}]}]}
